According to patent US11679107B2 (Eisai R&D Management Co., Ltd., priority 2018, dated 2023):
Like-named read-outs stand apart in the source and are kept apart here.

Tests used:
[1] = tested on: NCI-H1568 cells (high MCL1); test: Cell proliferation and viability, CellTiter-Glo, 72 hours; type: cell-based; details: for GI50: geometric mean
Procedure, shortened: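 Cells grown in RPMI-1640 with 10% FBS (Panc line with added insulin and FBS to 15%) were exposed to an 11-point half-log dilution series, typically 10 μM-100 pM, at 0.1% final DMSO. After incubation at 37° C, 5% CO2, ATP content was measured by luminescence and normalized to a time-zero plate and DMSO wells.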

[2] = tested on: Ad2 variant pre-mRNAs spliced in HeLa S3 nuclear extracts; test: In vitro splicing assay (IVS), RT-qPCR of spliced product; type: biochemical; details: for IC50: geometric mean; for Ratio Ad2.1/2.2: ratio of IVS IC50 Ad2.1 to Ad2.2
Procedure, shortened: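 Ad2 variant pre-mRNA (2 ng) with FTZΔi control RNA in HeLa S3 nuclear extract (8 μg) was pre-incubated with compound or DMSO for 15 min at 30 °C. Splicing ran 90 min at 30 °C after adding 0.5 mM ATP, creatine phosphate and MgCl2. Spliced product was quantified by TaqMan RT-qPCR, normalized to DMSO, and curve-fitted.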

[3] = target: T1, SF3b complexes (Homo sapiens, UniProt O75533+Q7RTV0); test: Scintillation proximity assay (SPA) with [3H]-labelled pladienolide probe; type: binding; details: SF3B1 (WT); geometric mean; read-out: SPA-ATS GMean IC50 (nM) SF3B1 (WT)
T1 construct: endogenous in cells; host or cells: Nuclear extracts; A HeLa S3 extract preparation is described for the in vitro splicing assay
Procedure, shortened: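 SF3b complexes captured from nuclear extracts on anti-SF3B1 antibody SPA beads; test compounds pre-incubated 30 min before 2.5 nM [3H]-pladienolide probe added, then 30 min incubation. Bound probe read by scintillation; values from non-linear regression of concentration–response curves.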

[4] = 72 h, NCIH1568.1, -100% = cidal, 0% = static, 100% = uninhibited growth
[5] = NCI-H1568, 72 h, read-out: CTGlo-ATS GMean GI50 (nM) 72 h NCIH1568.1, 72 h, NCIH1568.1
[6] = Ad2.1 pre-mRNA substrate, read-out: qPCR-IVS-ATS GMean IC50 (nM) Ad2.1
[7] = Ad2.2 pre-mRNA substrate, read-out: qPCR-IVS-ATS GMean IC50 (nM) Ad2.2
[8] = NCI-H1568, 72 h, read-out: CTGlo-ATS GMean GI50 (nM) 72 h NCIH1568.1, NCIH1568.1 cells, 72 h
[9] = NCIH1568.1 cells, 72 h, −100% cidal, 0% static, 100% maximal growth
[10] = NCI-H1568, read-out: CTGlo-ATS GMean GI50 (nM) 72 h NCIH1568.1, 72 h, NCIH1568.1
[11] = NCI-H1568, read-out: CTGlo-ATS GMean GI50 (nM) 72 h NCIH1568.1, NCIH1568.1 cells, 72 h

| SMILES | CTGlo-ATS Mean MinResponse % 72 h NCIH1568.1 [1, 4] | GI50 [1, 5] | IC50 [2, 6] | IC50 [2, 7] | Ratio Ad2.1/2.2 [2] | IC50 [3] | GI50 [1, 8] | CTGlo-ATS Mean MinResponse % 72 h NCIH1568.1 [1, 9] | GI50 [1, 10] | GI50 [1, 11] |
| --- | --- | --- | --- | --- | --- | --- | --- | --- | --- | --- |
| C/C(=C\c1cc(F)cc(N2CCN(C(=O)Cn3cccn3)CC2)c1)C1OC(=O)CC(O)CC[C@H](C)[C@@H](OC(=O)NC(C)CO)/C=C/C1C (stereo in doubt) [Compound 229, [(2R,3R,4E,6R,7S,10S)-2-[(E)-1-[3-fluoro-5-[4-(2-pyrazol-1-ylacetyl)piperazin-1-yl]phenyl]prop-1-en-2-yl]-10-hydroxy-3,7-dimethyl-12-oxo-1-oxacyclododec-4-en-6-yl] N-[(2S)-1-hydroxypropan-2-yl]carbamate] | −65.653% | 13.4 nM | 329 nM | 12.2 nM | 27.000 | 17.1 nM |  |  |  |  |
| CCCS(=O)(=O)N1CCC(N(C)c2cc(F)cc(/C=C(\C)[C@H]3OC(=O)C[C@H](O)CC[C@H](C)[C@@H](OC(=O)N4CCN(C)CC4)/C=C/[C@@H]3C)c2)CC1 [Compound 182] |  |  | 208 nM | 40.1 nM |  | 86.4 nM | 23.4 nM | −69.521% |  |  |
| C/C(=C\c1cc(F)cc(N2CCN(C(=O)Cn3cccn3)CC2)c1)[C@H]1OC(=O)C[C@H](O)CC[C@H](C)[C@@H](OC(=O)N2CCN(CCO)CC2)/C=C/[C@@H]1C [Compound 234, [(2S,3S,4E,6R,7S,10R)-2-[(E)-1-[3-fluoro-5-[4-(2-pyrazol-1-ylacetyl)piperazin-1-yl]phenyl]prop-1-en-2-yl]-10-hydroxy-3,7-dimethyl-12-oxo-1-oxacyclododec-4-en-6-yl] 4-(2-hydroxyethyl)piperazine-1-carboxylate] | −81.384% |  | 13.1 nM | 16.5 nM | 0.793 | 3.16 nM |  |  | 5.2 nM |  |
| C/C(=C\c1cc(F)cc(N2CCN(C(=O)Cn3cccn3)CC2)c1)[C@H]1OC(=O)C[C@H](O)CC[C@H](C)[C@@H](OC(=O)NCc2ccncc2)/C=C/[C@@H]1C [Compound 221, [(2S,3S,4E,6R,7S,10R)-2-[(E)-1-[3-fluoro-5-[4-(2-pyrazol-1-ylacetyl)piperazin-1-yl]phenyl]prop-1-en-2-yl]-10-hydroxy-3,7-dimethyl-12-oxo-1-oxacyclododec-4-en-6-yl] N-(pyridin-4-ylmethyl)carbamate] | −66.213% | 11.4 nM | 9.6 nM | 4.86 nM | 1.973 | 9.33 nM |  |  |  |  |
| COc1ccc(-n2nnc3c(F)cc(/C=C(\C)[C@H]4OC(=O)C[C@H](O)CC[C@H](C)[C@@H](OC(=O)N5CCN(C)CC5)/C=C/[C@@H]4C)cc32)cc1 [Compound 165] |  |  | 29.5 nM | 15.2 nM |  | 18.7 nM |  | −78.159% |  | 10 nM |
| C/C(=C\c1cc(F)cc(N(C)C2CCN(S(=O)(=O)C3CCCC3)CC2)c1)[C@H]1OC(=O)C[C@H](O)CC[C@H](C)[C@@H](OC(=O)N2CCN(C)CC2)/C=C/[C@@H]1C [Compound 183] |  |  | 713 nM | 20.3 nM |  | 66.3 nM | 53.6 nM | −66.270% |  |  |
| C/C(=C\c1cc(F)cc(N2CCN(C(=O)Cn3cccn3)CC2)c1)[C@H]1OC(=O)C[C@H](O)CC[C@H](C)[C@@H](OC(=O)N2CCN(C3CCCCC3)CC2)/C=C/[C@@H]1C [Compound 238, [(2S,3S,4E,6R,7S,10R)-2-[(E)-1-[3-fluoro-5-[4-(2-pyrazol-1-ylacetyl)piperazin-1-yl]phenyl]prop-1-en-2-yl]-10-hydroxy-3,7-dimethyl-12-oxo-1-oxacyclododec-4-en-6-yl] 4-cyclohexylpiperazine-1-carboxylate] | −88.447% | 5.79 nM | 32.2 nM | 68.1 nM | 0.473 | 18.1 nM |  |  |  |  |
| CC(=O)N1CCC(n2cnc3c(F)cc(/C=C(\C)[C@H]4OC(=O)C[C@H](O)CC[C@H](C)[C@@H](OC(=O)N5CCN(C)CC5)/C=C/[C@@H]4C)cc32)CC1 [Compound 146] |  |  | 11.1 nM | 12.7 nM |  | 22.7 nM | 2.79 nM | −88.975% |  |  |
| C/C(=C\c1cc(F)cc(N(C)C2CCN(S(=O)(=O)c3ccccc3)CC2)c1)[C@H]1OC(=O)C[C@H](O)CC[C@H](C)[C@@H](OC(=O)N2CCN(C)CC2)/C=C/[C@@H]1C [Compound 185] |  |  | 543 nM | 46.6 nM |  | 186 nM |  | −99.538% |  | 114 nM |
| C/C(=C\c1cc(F)cc(N(C(C)C)C2CCN(S(C)(=O)=O)CC2)c1)[C@H]1OC(=O)C[C@H](O)CC[C@H](C)[C@@H](OC(=O)N2CCN(C)CC2)/C=C/[C@@H]1C [Compound 176] |  |  | 49.7 nM | 31.2 nM |  | 38.5 nM |  | −88.183% |  | 19 nM |
| C/C(=C\c1cc(F)cc(N(C)C2CCN(C(=O)c3cn(C)cn3)CC2)c1)[C@H]1OC(=O)C[C@H](O)CC[C@H](C)[C@@H](OC(=O)N2CCN(C)CC2)/C=C/[C@@H]1C [Compound 190] |  |  | 33.5 nM | 15.7 nM |  | 6.55 nM |  | −69.142% |  | 19.8 nM |
| C/C(=C\c1cc(F)cc(N(C)C2CCN(C(=O)C(F)(F)F)CC2)c1)[C@H]1OC(=O)C[C@H](O)CC[C@H](C)[C@@H](OC(=O)N2CCN(C)CC2)/C=C/[C@@H]1C [Compound 181] |  |  | 19.7 nM | 19.2 nM |  | 8.2 nM |  | −85.226% |  | 9.74 nM |
| C/C(=C\c1cc(F)cc(N(C)C2CCN(C(=O)Nc3ccccc3)CC2)c1)[C@H]1OC(=O)C[C@H](O)CC[C@H](C)[C@@H](OC(=O)N2CCN(C)CC2)/C=C/[C@@H]1C [Compound 193] |  |  | 47.8 nM | 19.6 nM |  | 127 nM |  | −89.438% |  | 17.2 nM |
| C/C(=C\c1cc(F)cc(N2CCN(C(=O)[C@@H]3CCOC3)CC2)c1)[C@H]1OC(=O)C[C@H](O)CC[C@H](C)[C@@H](OC(=O)N2CCN(C)CC2)/C=C/[C@@H]1C [Compound 152] |  |  | 16.2 nM | 8.39 nM |  | 3.83 nM | 1.51 nM | −80.509% |  |  |
| C/C(=C\c1cc(F)cc(N2CCN(C(=O)[C@@H](C)O)CC2)c1)[C@H]1OC(=O)C[C@H](O)CC[C@H](C)[C@@H](OC(=O)N2CCN(C)CC2)/C=C/[C@@H]1C [Compound 81] |  |  | 9.07 nM | 4.95 nM |  | 2.59 nM |  | −83.963% |  | 2.18 nM |
| C/C(=C\c1cc(F)c2nnn([C@@H](C)CO)c2c1)[C@H]1OC(=O)C[C@H](O)CC[C@H](C)[C@@H](OC(=O)N2CCN(C)CC2)/C=C/[C@@H]1C [Compound 149] |  |  | 9.13 nM | 8.71 nM |  | 1.86 nM |  | −73.106% |  | 1.66 nM |
| C/C(=C\c1cc(F)cc(N2CCN(C(=O)Cn3cccn3)CC2)c1)[C@H]1OC(=O)C[C@H](O)CC[C@H](C)[C@@H](OC(=O)N(C)C2CCN(C)CC2)/C=C/[C@@H]1C [Compound 233, [(2S,3S,4E,6R,7S,10R)-2-[(E)-1-[3-fluoro-5-[4-(2-pyrazol-1-ylacetyl)piperazin-1-yl]phenyl]prop-1-en-2-yl]-10-hydroxy-3,7-dimethyl-12-oxo-1-oxacyclododec-4-en-6-yl] N-methyl-N-(1-methylpiperidin-4-yl)carbamate] | −87.288% |  | 5.87 nM | 6.05 nM | 0.971 | 2.46 nM |  |  | 1.98 nM |  |
| CC(=O)N1CCC(N(C)c2cc(F)cc(/C=C(\C)[C@H]3OC(=O)C[C@H](O)CC[C@H](C)[C@@H](OC(=O)N4CCN(C)CC4)/C=C/[C@@H]3C)c2)CC1 [Compound 177] |  |  | 18.2 nM | 10.3 nM |  | 2.38 nM |  | −80.643% |  | 3.62 nM |
| C/C(=C\c1cc(F)c2cnn(C3CCN(S(C)(=O)=O)CC3)c2c1)[C@H]1OC(=O)C[C@H](O)CC[C@H](C)[C@@H](OC(=O)N2CCN(C)CC2)/C=C/[C@@H]1C [Compound 196] | −90.418% |  | 30 nM | 19.6 nM | 1.529 | 13.2 nM |  |  | 1.83 nM |  |
